From PubChem BioAssay (NCI) come the findings set out here.

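48-hour exposure; five concentrations; linearly interpolated endpoints. Abbreviation: GI50, concentration required for 50% inhibition of growth. Definition used: TGI = concentration required for complete inhibition of growth.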 A value given as a limit tells only on which side of the number the result lay.

Holding throughout (experiment): NCI-60 cell line screen, 48 h
In assay [1] the test system is PC-3 prostate.
Assay [2] concerns HOP-62 NSCLC.
Assay [3] concerns SF-268 CNS.
Assay [4] deals with HCT-116 colon.
Assay [5] has as its system MDA-MB-231 breast.
Assay [6] relates to 786-0 renal.
Assay [7] concerns KM12 colon.
Assay [8] deals with RXF 393 renal.
The subject of assay [9] is IGROV1 ovarian.
The subject of assay [10] is DU-145 prostate.

Take `CC1=C/C(=N/N2C(=O)/C(=C/c3ccc(Cl)cc3)N=C2c2ccccc2)CC(C)(C)C1`: the TGI in assay [1], in assay [2], in assay [3], in assay [4], in [5] and in [6] was over 100 µM throughout. Moreover, the TGI in [7], in [8] and in assay [9] was over 100 µM in each case.

Take `CC(=O)Oc1ccn2nc(C)c(Br)c2c1Br`: the TGI in [1] is 43.7 µM; in assay [10] it was over 100 µM; in [2] it was over 87 µM; in [3], over 90.1 µM; in [4], over 58.7 µM; in assay [5], 54.3 µM. Besides, the TGI in assay [6] was over 100 µM; in assay [7] it was over 100 µM; in assay [9], over 72.2 µM.

With `O=C(CSc1nnc(Cc2ccccc2)o1)Nc1ccc(Cl)cc1`, the TGI in assay [2], in [4], in assay [6], in [7], in assay [8] and in assay [9] was over 100 µM throughout.

As for `CN(C)C(=O)CC(C(=O)O)c1c[nH]c2ccccc12` (centres undefined), the TGI in assay [2], in [4], in [6], in assay [7], in assay [8] and in assay [9] was over 100 µM in each case.

Turning to `NC(=O)N/N=C(\Cc1nc2ccc(C(=O)c3ccccc3)cc2[nH]c1=O)C(=O)Nc1ccc(Br)cc1`, the TGI in [2], in [3], in [4], in assay [6], in [7] and in assay [8] was over 100 µM each time. The same molecule registered a TGI in [9] of over 100 µM.

Consider `Nc1nc2c(ncn2CCOC(c2ccccc2)P(=O)(O)O)c(=O)[nH]1` (centres undefined), for which the TGI in assay [3], in [4], in assay [6], in [7], in assay [8] and in assay [9] was over 100 µM each time.

Take `COC(=O)[C@@H]1c2cc3c(c(O)c2[C@@H](OC)C[C@@]1(C)O)C(=O)c1c(O)cc2c(c1C3=O)OC1O[C@@]2(C)[C@H](O)[C@@H](N(C)C)[C@@H]1O`: the TGI worked out at 1.06 µM in assay [2]; 3.02 µM in assay [3]; 1.58 µM in assay [4]; 2.34 µM in assay [7]; 1.37 µM in assay [8]; 1.7 µM in assay [9].

For `C=CC1OC(CCCOC(=O)C(C)(C)C)O[C@@H]1CC` (some centres undefined), the TGI in assay [1], in assay [10], in assay [2], in assay [3], in [5] and in assay [7] was over 100 µM in each case. The molecule further showed a TGI in [9] of over 100 µM.

`CN(C)c1ccc(/C=C/c2sc3ccc4ccccc4c3[n+]2C)cc1`: the GI50 is 0.315 µM in [1], 0.526 µM in assay [5] and 0.368 µM in assay [9]. Besides, the TGI in assay [1] came to 1.71 µM; in assay [5], 2.62 µM; in assay [9], 1.66 µM.

Consider `CCCCCCOc1ccc(NC2=C(Cl)C(=O)c3cccnc3C2=O)cc1`, for which the TGI is over 10 µM in assay [1]; 2.9 µM in assay [10]; 5.83 µM in assay [2]; 5.31 µM in [3]; 2.09 µM in assay [4]; 2.8 µM in [6]. Moreover, the TGI in [7] stood at 2.97 µM; in assay [8], 2.77 µM; in assay [9], 3.62 µM.

With `CO/N=C1\CCC2(O)C3Cc4ccc(O)c5c4C2(CCN3CC2CC2)[C@H]1O5` (some centres undefined), the TGI in assay [1], in assay [10], in [2], in assay [3], in assay [4] and in [5] was over 100 µM throughout. Moreover, the TGI in assay [6], in [7] and in [9] was over 100 µM throughout.

For `C[n+]1c2ccccc2c(CNC(CCC(N)=O)C(=O)O)c2ccccc21` (centres undefined), the TGI in assay [1] stood at 10.8 µM; in assay [10], 11.4 µM; in assay [2], 12.3 µM; in [3], 6.71 µM; in assay [4] it was 1.21 µM; in assay [6] it was 3.22 µM. In addition, the TGI in assay [7] turned out to be 9 µM; in [8], 6.18 µM; in [9], 13.4 µM.

Regarding `COc1ccc(C(=O)N2CCN(c3ccc4c(c3)OCC(=O)N4)CC2)cc1`, the TGI in assay [1], in assay [10], in [2], in [3], in [4] and in assay [5] was over 100 µM throughout. Further, the TGI in assay [6], in assay [7] and in assay [9] was over 100 µM throughout.

As for `O=C(O)Cc1ccc(N2N=C(c3ccccc3)CC2=O)cc1`, the TGI in assay [1], in [10], in assay [2], in assay [3], in [4] and in [5] was over 100 µM in each case. The TGI in assay [7] and in assay [9] was over 100 µM each time.

On to `CCOC(=O)CCC(C(=O)OCC)n1nc2ccc(Nc3c(C)[n+]([O-])c4cc(Cl)ccc4[n+]3[O-])cc2n1` (centres undefined), for which the TGI in assay [1], in [10], in [2], in [3], in assay [4] and in assay [6] was over 100 µM each time. For the same molecule, the TGI in assay [7], in assay [8] and in assay [9] was over 100 µM each time.

Consider `C=C(C)CCC1CCCCC(CN(C)C)C1=O` (centres undefined), for which the TGI in assay [1], in assay [10], in assay [2], in assay [3], in assay [4] and in assay [5] was over 100 µM throughout. For the same molecule, the TGI in [6], in [7] and in assay [9] was over 100 µM throughout.
